# Results as given in patent US20240293466A1, “DIFFERENTIAL CXCR4 […] HEMATOPOIETIC PROGENITOR CELLS VERSUS STEM CELLS DIRECTS HOMING AND LONG-TERM ENGRAFTMENT” (priority 2021, published 2024).
# Experiments:
# VLA-4 = biological target: T1, VLA-4 (Homo sapiens, UniProt P05556+P13612); assay: Homing of CD34+CD38+ HPC into bone marrow of NSG mice after VLA-4 blockade; format: in vivo; settings: IV or IBM delivery; HPC pre-treated with 1 μM BIO5192
# T1 construct: endogenous in cells; host or cells: human G-CSF mobilized peripheral blood CD34+CD38+BFP+ HPC, sorted after transduction with a BFP-only LV vector
# T1 sequence (P13612 34-1032): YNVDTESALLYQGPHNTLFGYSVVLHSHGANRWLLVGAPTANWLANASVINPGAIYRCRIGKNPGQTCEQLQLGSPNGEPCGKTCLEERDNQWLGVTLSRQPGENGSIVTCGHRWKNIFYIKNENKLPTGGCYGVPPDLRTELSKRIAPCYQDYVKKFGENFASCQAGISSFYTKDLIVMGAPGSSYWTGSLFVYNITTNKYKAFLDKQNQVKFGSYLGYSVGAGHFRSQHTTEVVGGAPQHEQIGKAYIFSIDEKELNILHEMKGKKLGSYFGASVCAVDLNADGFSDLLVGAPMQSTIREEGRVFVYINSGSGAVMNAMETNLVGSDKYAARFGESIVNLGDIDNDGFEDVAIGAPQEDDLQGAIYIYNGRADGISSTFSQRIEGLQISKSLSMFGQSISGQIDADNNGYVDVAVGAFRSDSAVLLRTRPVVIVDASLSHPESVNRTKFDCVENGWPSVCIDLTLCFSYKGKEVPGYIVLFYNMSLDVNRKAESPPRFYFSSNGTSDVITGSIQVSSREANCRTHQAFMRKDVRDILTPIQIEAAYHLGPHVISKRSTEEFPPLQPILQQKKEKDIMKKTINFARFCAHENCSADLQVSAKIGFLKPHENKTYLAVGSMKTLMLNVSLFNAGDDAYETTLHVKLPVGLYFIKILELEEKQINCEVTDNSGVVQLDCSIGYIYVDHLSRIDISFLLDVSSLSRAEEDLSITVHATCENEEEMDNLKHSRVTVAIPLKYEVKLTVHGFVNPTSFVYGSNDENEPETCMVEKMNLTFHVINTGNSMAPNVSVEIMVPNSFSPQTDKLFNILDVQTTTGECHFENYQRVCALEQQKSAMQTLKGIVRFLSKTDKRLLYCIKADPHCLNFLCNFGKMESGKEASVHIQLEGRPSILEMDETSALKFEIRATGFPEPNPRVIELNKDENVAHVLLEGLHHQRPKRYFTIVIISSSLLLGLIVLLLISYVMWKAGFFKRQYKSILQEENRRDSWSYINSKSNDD
# T1 sequence (P05556 21-798): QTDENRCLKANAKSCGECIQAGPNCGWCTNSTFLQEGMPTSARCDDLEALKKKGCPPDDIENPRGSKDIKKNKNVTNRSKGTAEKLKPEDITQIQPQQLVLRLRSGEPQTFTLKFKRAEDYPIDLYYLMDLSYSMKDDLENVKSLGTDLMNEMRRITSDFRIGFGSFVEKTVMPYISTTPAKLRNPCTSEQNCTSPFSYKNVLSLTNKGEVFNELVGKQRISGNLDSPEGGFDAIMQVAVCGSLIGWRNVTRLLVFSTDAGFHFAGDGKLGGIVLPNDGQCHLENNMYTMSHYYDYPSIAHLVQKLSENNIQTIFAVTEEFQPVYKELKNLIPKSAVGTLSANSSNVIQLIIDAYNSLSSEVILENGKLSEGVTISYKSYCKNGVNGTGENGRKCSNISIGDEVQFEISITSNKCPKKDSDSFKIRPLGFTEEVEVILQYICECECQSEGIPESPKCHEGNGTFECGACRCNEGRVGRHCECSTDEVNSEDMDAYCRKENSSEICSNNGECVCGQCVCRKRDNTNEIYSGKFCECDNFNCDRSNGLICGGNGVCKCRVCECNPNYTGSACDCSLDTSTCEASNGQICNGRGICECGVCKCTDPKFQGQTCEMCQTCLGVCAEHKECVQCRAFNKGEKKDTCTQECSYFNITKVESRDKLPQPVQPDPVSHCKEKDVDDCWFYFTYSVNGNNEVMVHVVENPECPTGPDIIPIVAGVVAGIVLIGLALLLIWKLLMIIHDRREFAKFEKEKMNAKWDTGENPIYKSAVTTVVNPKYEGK
# Experimental: (§1) Mice were irradiated with 280 cGy prior to transplant.
# CD34+HSPC were resuspended in PBS containing 1 μM BIO5192 (Tocris, 5051) and incubated on ice for 20 minutes.
# [1] = test system: CD34+CD38- HSC-enriched cells; assay: Long-term (24 week) engraftment of transduced CD34+CD38- cells in NSG mice; format: in vivo, human; settings: 24 weeks
# Excerpt: as §1
# At 12 weeks following transplant, bone marrow was harvested via aspirate of the femur for in vivo engraftment analysis. For animals that received IBM injections into one femur, the non-injected alternate femur was aspirated. For 24 week and homing analysis, mice were sacrificed, and bone marrow was harvested from both the rear and forelimbs. Cells were stained fresh with the following antibodies: PerCP anti-human CD45 (BioLegend 304026), Anti-human CD33 PE-Cy7 (eBioscience 25-0338-42), APC-Cy7 Mouse Anti-Human CD19 (BD 557791), Anti-Human CD3 PE (BD BioSciences 555340), and APC Mouse Anti-Human CD34 (BD BioScience 555824). Red bloods cells were lysed after staining using red blood cell lysis buffer.
# Next, CD34+CD38−HSC-enriched cells were sorted, transduced with GFP LV^CXCR4 vector or GFP LV control vector, and transplanted them IV or IBM in two limiting dilutions to irradiated NSG mice to assess engraftment of the long-term repopulating HSC at 6 months post-transplant (FIG. 5F-5G). […] The slightly higher engraftment of untransduced IV transplanted cells (FIGS. 5F and 10C) was likely because LV preparations often contain some defective viral particles, which, like VLP, would deliver CXCR4 protein but not result in an effective transduction (transgene transfer or GFP+cells). […]
# [2] = test system: MPB CD34+ HSPC / CD34+CD38- cells; assay: Gene transfer efficiency of LV vectors in HSPC; format: cell-based, human
# Experimental: UCB and G-CSF MPB were obtained and CD34+HSPC were isolated by magnetic selection with Indirect CD34 Microbead kit, human (Miltenyi, 130-046-701). CD34+purity was >95% as confirmed by flow cytometry. CD34+CD38−cells were isolated from G-CSF MPB by magnetic selection with CD34+CD38−Isolation Kit, human (Miltenyi, 130-114-822) and cryopreserved. Thawed CD34+ or CD34+CD38−cells were cultured in X-VIVO 10 (Lonza BE02-055Q) or SCGM (CellGenix 20806-0500) supplemented with 2% human serum albumin, 100 ng/mL TPO, 300 ng/mL SCF, and 300 ng/mL FLT3-L (all cytokines purchased from Peprotech) at a cell density of 2-5×10^6 CD34+cells/mL. Media was supplemented with Birb 796 (600 nM) (Selleckchem) throughout culture and Prostaglandin E2 (10 μM) (Cayman) at plating, transduction, and 1 hour before harvest. Cells were transduced with a lentiviral vector in culture for 36-42 hours where indicated. CD34+HSPC were transduced at a final concentration of 5×10^7-1×10^8 IU/mL. Following culture, CD34+HSPC were harvested and washed with PBS, resuspended in PBS, and used in in vivo or in vitro experiments, as described below.
# CXCR4 = CXCR4 (Homo sapiens, UniProt P61073)
# Chain of CXCR4 (P61073 whole entry): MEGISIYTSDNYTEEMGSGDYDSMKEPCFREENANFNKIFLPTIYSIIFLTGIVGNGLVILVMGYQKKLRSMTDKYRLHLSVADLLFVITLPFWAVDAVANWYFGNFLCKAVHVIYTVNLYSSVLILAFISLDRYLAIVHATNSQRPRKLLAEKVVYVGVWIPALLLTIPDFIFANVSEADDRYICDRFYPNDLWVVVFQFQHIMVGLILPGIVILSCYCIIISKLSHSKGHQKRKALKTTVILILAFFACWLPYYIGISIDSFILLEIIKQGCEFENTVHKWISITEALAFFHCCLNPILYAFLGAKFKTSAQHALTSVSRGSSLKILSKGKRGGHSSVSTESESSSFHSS
# Experimental: 6- to 14-week-old NOD.Cg-Prkdc^scid Il2rg^tm1Wjl/SzJ (NSG) mice were used in UCB- and MPB-derived HSPC transplant experiments. Mice were irradiated with 280 cGy prior to transplant. For homing experiments, each mouse received 3×10^6 CD34+cells and 16-22 hours post-injection, the mice were sacrificed and bone marrow from the femurs was analyzed for human cell content. For long-term engraftment experiments, mice received limiting dilution CD34+or CD34+CD38−HSPC doses. IV injections were done by injecting HSPC in 200-250 μL via tail vein and IBM injections were done by injecting HSPC in 10 μL into the femur.
# The cells were washed with PBS and transplanted into NSG mice for homing experiments.
# CD34+cells were transduced with a blue fluorescent protein (BFP) encoding LV vector and the CD34+CD38+BFP+HPC were sorted by flow cytometry.
# [3] = test system: CD34+CD38- HSC-enriched cells; assay: Homing of CD34+CD38-BFP+ cells mixed with CD34+CD38+ HPC in NSG mice; format: in vivo, human; settings: 20-22 hours
# Excerpt: as §1
# An alternative explanation for the competitive homing and engraftment advantage of HPC could be that they comprise the vast majority of CD34+HSPC (98-99%), while HSC are a small minority. It was experimentally conferred the HSC-enriched CD34+CD38− population with slightly higher CXCR4 expression than the CD34+CD38+HPC and assessed homing (FIG. 3D). The CD34+HSPC were transduced with a BFP-CXCR4-encoding LV vector or a BFP-encoding LV control vector and CD34+CD38−BFP+HSC-enriched cells were sorted along with untransduced CD34+CD38+BFP−HPC. CXCR4 expression on these populations was assessed before transplant. In control cells, CXCR4 expression on the more primitive CD34+CD38−cells was much lower (MFI 16,930) than on CD34+CD38+HPC (MFI 35,098) (FIG. 3E), consistent with prior data (see, e.g., FIG. 2D). […] The sorted BFP-HPC population was then mixed with the BFP+CD34+CD38−CXCR4^high HSC-enriched cell population in ratios seen in CD34+HSPC prior to sorting, and transplanted them either IV or IBM, and homing of the CD34+CD38−BFP+CXCR4^high HSC-enriched cells was assessed. Control CD34+CD38−BFP+cells were also mixed with CD34+CD38+BFP−HPC and transplanted IV or IBM (FIG. 3D) and their homing into bone marrow was assessed. […]
# [4] = test system: CD34+CD38- HSC-enriched cells; assay: CXCR4 expression (flow cytometry MFI) on sorted transduced cells at time of transplant; format: cell-based, human; settings: CD34+CD38-BFP+ cells, 72 hours after gene transfer
# Excerpt: All LV vectors were packaged using the Gag-Pol, Rev and VSV-G envelope plasmids. All vectors were under the control of the MNDU3 promoter. The GFP LV construct was pRRL.SIN.cPPT.MNDU3.eGFP.WPRE. The BFP LV construct was designed by replacing the GFP cDNA in pRRL.SIN.cPPT.MNDU3.eGFP.WPRE.with mTag2BFP. The BFP-CXCR4 LV was pRRL.SIN.cPPT.MNDU3.mTag2BFP-CXCR4.WPRE. All lentiviral vectors were packaged in HEK 293T (ATCC) cells and vector titers determined in the murine erythroleukemia (MEL) (ATCC) cells as previously described (Perumbeti et al., Blood, 2009; Urbinati et al., Mol Ther, 2009; Arumugam et al., Mol Ther, 2009). […]
# An alternative explanation for the competitive homing and engraftment advantage of HPC could be that they comprise the vast majority of CD34+HSPC (98-99%), while HSC are a small minority. It was experimentally conferred the HSC-enriched CD34+CD38− population with slightly higher CXCR4 expression than the CD34+CD38+HPC and assessed homing (FIG. 3D). […] CXCR4 expression on these populations was assessed before transplant. […] The sorted BFP-HPC population was then mixed with the BFP+CD34+CD38−CXCR4^high HSC-enriched cell population in ratios seen in CD34+HSPC prior to sorting, and transplanted them either IV or IBM, and homing of the CD34+CD38−BFP+CXCR4^high HSC-enriched cells was assessed. […]
molecule,measurement,setting,value
Cc1ccccc1NC(=O)Nc1ccc(CC(=O)N(C)[C@@H](CC(C)C)C(=O)NCC[C@H](NC(=O)[C@@H]2CCCN2S(=O)(=O)c2cc(Cl)cc(Cl)c2)C(=O)O)cc1 [BIO5192],CD34+38+ HPC homing pattern vs corresponding controls,VLA-4,did not alter
pRRL.SIN.cPPT.MNDU3.eGFP.WPRE [GFP LV],lineage repopulation,[1],full multilineage repopulation
same,gene transfer efficiency,"[2]; CD34+CD38- HSC-enriched cells, experiment of FIG. 4",69%
same,gene transfer,"[2]; CD34+CD38- cells, homing/engraftment experiment of FIGS. 5 and 10",60%
same,gene transfer,"[2]; MPB CD34+HSPC, experiment of FIG. 1",63-66%
c1cc(CN2CCCNCCNCCCNCC2)ccc1CN1CCCNCCNCCCNCC1 [AMD3100],human HPC content in the injected femur (IF),"CXCR4; IBM delivery, CD34+CD38+BFP+ HPC pre-treated with 100 ug/mL AMD3100, reduced to homing levels of IV delivery or nonIF",significantly reduced
same,homing of IV injected cells,"CXCR4; IV delivery, HPC pre-treated with AMD3100",note blocked
pRRL.SIN.cPPT.MNDU3.mTag2BFP-CXCR4.WPRE [BFP-CXCR4 LV vector],homing of CD34+CD38- cells to bone marrow,"[3]; IV administration, mixed with majority of CD34+38+ HPC",higher homing levels
same,homing of CD34+CD38- cells to bone marrow,"[3]; direct IBM transplantation, mixed with majority of HPC",remarkably improved homing advantage
same,CXCR4 expression MFI,[4],"37,453"
